Laboratory results published in patent publication US12172983B2, “EGFR inhibitors” (Blueprint Medicines Corporation, priority 2019, dated 2024).

Columns and labels:
EGFR (L858R T790M C797S) = target: T1, EGFR (L858R T790M C797S) (Homo sapiens, UniProt P00533, C797S/L858R/T790M); assay: Biochemical EGFR inhibition assay (Caliper mobility shift), EGFR LRTMCS mutant; conditions: inhibitory activity against EGFR LRTMCS mutant; apparent IC50; read-out: Ext Enz LRTMCS
T1 construct: purchased SignalChem E10-122VG
T1 sequence (P00533 25-1210 T790M/C797S/L858R): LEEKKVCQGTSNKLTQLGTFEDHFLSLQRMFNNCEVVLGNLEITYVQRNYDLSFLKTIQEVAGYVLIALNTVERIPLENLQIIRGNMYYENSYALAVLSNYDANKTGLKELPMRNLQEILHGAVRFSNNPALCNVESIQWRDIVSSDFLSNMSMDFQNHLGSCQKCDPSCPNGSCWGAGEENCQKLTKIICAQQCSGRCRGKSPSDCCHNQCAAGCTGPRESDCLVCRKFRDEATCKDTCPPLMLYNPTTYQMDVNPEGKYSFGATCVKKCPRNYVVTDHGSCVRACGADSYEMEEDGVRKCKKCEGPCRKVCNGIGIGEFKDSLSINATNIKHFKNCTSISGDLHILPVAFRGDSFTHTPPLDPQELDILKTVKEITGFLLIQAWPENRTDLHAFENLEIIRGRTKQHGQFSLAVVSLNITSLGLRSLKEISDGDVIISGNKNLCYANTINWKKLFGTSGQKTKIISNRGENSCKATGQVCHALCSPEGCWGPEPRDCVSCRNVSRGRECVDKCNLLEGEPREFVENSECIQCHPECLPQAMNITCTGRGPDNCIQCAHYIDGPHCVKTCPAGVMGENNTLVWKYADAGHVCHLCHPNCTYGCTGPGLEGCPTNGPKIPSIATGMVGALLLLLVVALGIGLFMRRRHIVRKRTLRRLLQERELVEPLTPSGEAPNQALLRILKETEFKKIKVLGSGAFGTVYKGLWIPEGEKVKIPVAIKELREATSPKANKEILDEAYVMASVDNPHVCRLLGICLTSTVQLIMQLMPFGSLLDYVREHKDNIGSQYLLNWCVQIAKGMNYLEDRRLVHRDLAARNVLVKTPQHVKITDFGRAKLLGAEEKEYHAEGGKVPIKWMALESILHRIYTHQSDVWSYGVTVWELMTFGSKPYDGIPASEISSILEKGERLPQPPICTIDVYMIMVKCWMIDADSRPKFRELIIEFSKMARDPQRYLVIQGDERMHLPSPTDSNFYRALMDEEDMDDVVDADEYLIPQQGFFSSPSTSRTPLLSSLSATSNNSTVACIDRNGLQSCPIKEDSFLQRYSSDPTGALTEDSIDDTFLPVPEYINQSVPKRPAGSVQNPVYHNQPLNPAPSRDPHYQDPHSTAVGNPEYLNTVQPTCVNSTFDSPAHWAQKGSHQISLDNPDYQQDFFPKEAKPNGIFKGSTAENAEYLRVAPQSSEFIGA
Summary of the method: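 Caliper mobility shift read-out: product and substrate peptides separated by electrophoresis and quantified. Reactions at 25° C. taken to 10–20% peptide phosphorylation, quenched with 35 mM EDTA. Apparent IC50 from percent activity vs log [compound].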

[1] = test system: phosphorylation of EGFR (Tyr1068) in NCI-H1975 cell line that harbors the EGFR L858R T790M mutations; assay: NCI-H1975 pEGFR AlphaLISA assay; format: cell-based; conditions: Homo sapiens, NCI-H1975, inhibition of phosphorylation of mutant EGFR in NCI-H1975 cells; 4-5 hours incubation; read-out: Ext pEGFR H1975
Summary of the method: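 Phospho-EGFR Tyr1068 AlphaLISA readout: lysates taken from compound-treated H1975 cells (L858R T790M EGFR) after a 4-5 h exposure at 37 °C. Cells had adhered overnight beforehand. IC50 derived by plotting % pEGFR inhibition against log compound concentration.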

[2] = target: T2, EGFR (D770_N771insNPG T790M) (Homo sapiens, UniProt P00533, INS770NPG/T790M); assay: Biochemical EGFR inhibition assay (mobility shift), EGFR D770_N771insNPG T790M; conditions: inhibitory activity against EGFR_D770_N771insNPG/T790M mutant; apparent IC50; read-out: Enz EGFR_D770_N771insNPG/T790M
T2 construct: purchased SignalChem E10-132TG
T2 sequence (P00533 with tags, fused parts or gaps INS770NPG/T790M limits assumed): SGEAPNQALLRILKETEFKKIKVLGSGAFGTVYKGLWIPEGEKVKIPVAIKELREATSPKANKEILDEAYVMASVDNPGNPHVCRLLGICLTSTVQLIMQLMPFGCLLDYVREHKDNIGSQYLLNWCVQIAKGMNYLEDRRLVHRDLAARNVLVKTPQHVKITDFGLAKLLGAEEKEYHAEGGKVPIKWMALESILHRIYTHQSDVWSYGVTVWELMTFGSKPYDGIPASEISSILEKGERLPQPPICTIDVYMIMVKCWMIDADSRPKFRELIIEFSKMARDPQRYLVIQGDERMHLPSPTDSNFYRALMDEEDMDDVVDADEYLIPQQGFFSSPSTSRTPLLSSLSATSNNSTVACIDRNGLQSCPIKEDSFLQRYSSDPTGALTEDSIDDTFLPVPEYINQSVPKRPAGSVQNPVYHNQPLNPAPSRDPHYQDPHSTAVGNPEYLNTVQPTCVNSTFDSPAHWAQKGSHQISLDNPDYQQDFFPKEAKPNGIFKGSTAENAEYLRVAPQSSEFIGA
Experimental: Inhibitory effects of the compounds of the disclosure were measured in biochemical assays that measure the phosphorylation activity of EGFR enzyme phosphorylates 2.5 micromolar 5-FAM-[…]-CONH2 peptide substrate (FL-Peptide 22, PerkinElmer, 760366) in the presence of adenosine-5′-triphosphate (ATP) and varying concentrations of the test compound. […] Reactions proceeded until between 10% to 20% total peptides were phosphorylated at room temperature (25° C.) and were terminated with 35 mM 2,2′,2″,2′″-(ethane-1,2-diyldinitrilo)tetraacetic acid (EDTA). EGFR enzymatic activity was monitored using the Perkin Elmer electrophoretic mobility shift technology platform (the Caliper mobility shift detection method) where the phosphorylated peptide (product) and substrate were electrophoretically separated and measured. Percent activity was plotted against log concentration of compound and points to generate an apparent IC50. The following enzyme forms of EGFR were examples that were used in these assays: • EGFR WT (SignalChem, E10-112G) • EGFR (L858R T790M C797S) (SignalChem, E10-122VG) • EGFR (d746-750) T790M C797S (SignalChem, E10-122UG) • EGFR L858R (SignalChem, E10-122BG) • EGFR (d746-750) (SignalChem, E10-122JG) • EGFR (D770_N771insNPG T790M) (SignalChem, E10-132TG) • EGFR (D770_N771insNPG) (SignalChem, E10-132GG)

## CC(C)c1cnc(N2C[C@@H](CS(C)(=O)=O)[C@@H]2C)c2cnc(Nc3ccnc(N4CC[C@@H](O)[C@@](C)(F)C4)n3)cc12 (single isomer, unassigned) [Compound 128]
EGFR (L858R T790M C797S)
  IC50: ≤ 0.015 µM
[1]
  IC50: ≤ 0.01 µM
[2]
  IC50: 0.0201 to 0.1 µM

## CC(C)c1cnc(N2CC(CS(C)(=O)=O)C2)c2cnc(Nc3ccnc(N4C[C@@H](F)[C@@H](F)C4)n3)cc12 [Compound 7, N-{2-[cis-3,4-difluoropyrrolidin-1-yl]pyrimidin-4-yl}-8-[3-(methanesulfonylmethyl)azetidin-1-yl]-5-(propan-2-yl)-2,7-naphthyridin-3-amine]
EGFR (L858R T790M C797S)
  IC50: ≤ 0.015 µM
[1]
  IC50: 0.0101 to 0.02 µM
[2]
  IC50: 0.25 to 0.75 µM

## CC(C)c1cnc(N2CC(CS(C)(=O)=O)C2)c2cnc(Nc3ccnc(N4CCOCC4)n3)cc12 [Compound 2, 8-[3-(methanesulfonylmethyl)azetidin-1-yl]-N-[2-(morpholin-4-yl)pyrimidin-4-yl]-5-(propan-2-yl)-2,7-naphthyridin-3-amine]
EGFR (L858R T790M C797S)
  IC50: ≤ 0.015 µM
[1]
  IC50: 0.0301 to 0.05 µM
[2]
  IC50: 0.25 to 0.75 µM
